System: individuals diagnosed with schizophrenia
Experiment: Change in PANSS-N subscale by SNP genotype, patients on iloperidone 24 mg/day b.i.d. for 28 days (MMRM)
Format: in vivo, human
Description: Earlier studies investigated an association between a polymorphism in the CNTF gene and iloperidone efficacy as well as associations between CYP2D6 and KCNQ1 genotypes and changes in QT interval following the administration of iloperidone. The present study involved the genotyping of DNA samples collected from 426 individuals diagnosed with schizophrenia in an attempt to identify additional SNPs associated with iloperidone efficacy. Each sample was genotyped at more than 500,000 SNP loci using the GeneChip® Human Mapping 500K Array Set (Affymetrix, Santa Clara, Calif.) and using assays developed in-house. Approximately half of the participants in the study were administered 24 mg/day of iloperidone, b.i.d., for 28 days. About 25% of the patients were administered ziprasidone. The remaining participants were administered a placebo. Three analyses of the PANSS-T were conducted. 1) A two-step approach where samples were randomly split into 2 groups of iloperidone-treated patients used to discover SNPs associated with changed in PANSS-T (Discovery phase) and a second group to confirm the 100 most significant SNPs (Confirmatory phase). 2) A one-step approach using the Last Observation Carried Forward (LOCF) PANSS-T data of all iloperidone-treated patients. For each SNP, the most parsimonious genetic model (e.g., homozygous for one allele v. all other genotypes [i.e., AA v. AB and BB], heterozygous v. homozygous [i.e., AB v. AA and BB]) was established with respect to iloperidone efficacy using a one-way analysis of variance (ANOVA). 3) A Mixed-effects Model Repeated Measures (MMRM) analysis was subsequently conducted using the best genetic model of each SNP in the MMRM model. MMRM analyses were also conducted with the PANSS subscales PANSS-P, PANSS-N, and PANSS-GP. The SNPs with a statistically significant association in all 3 analyses of PANSS-T, as well as the best of each analysis were considered significant findings and are listed below in Table 1. Results for each of these SNPs with the PANSS-T scales and with the three subscales PANSS-P, PANSS-N, and PANSS-GP are shown in Tables 2, 3, 4, and 5, respectively. […] In the present case of iloperidone efficacy, it is likely that different markers are more specifically associated with one or a few specific clinical symptoms, which is reflected in the improvement measured in separate subscales.

## COc1cc(C(C)=O)ccc1OCCCN1CCC(c2noc3cc(F)ccc23)CC1 [iloperidone, 1-[4-[3-[4-(6-fluoro-1,2-benzisoxazol-3-yl)-1-piperidinyl]propoxy]-3-methoxyphenyl]ethanone]
SNP_A-1819750 (CREG1) genotype A_A
  mean of change in PANSS-N: −5.35
SNP_A-1819750 (CREG1) genotype A_B* (lowest response)
  mean of change in PANSS-N: −2.01
SNP_A-1819750 (CREG1) genotype B_B
  mean of change in PANSS-N: −4.01
SNP_A-1819750 (CREG1) genotype nonAB** (highest response)
  mean of change in PANSS-N: −4.45
SNP_A-1860353 (RAP1B) genotype A_A** (highest response)
  mean of change in PANSS-N: −11.00
SNP_A-1860353 (RAP1B) genotype A_B
  mean of change in PANSS-N: −2.29
SNP_A-1860353 (RAP1B) genotype B_B
  mean of change in PANSS-N: −2.73
SNP_A-1860353 (RAP1B) genotype nonAA* (lowest response)
  mean of change in PANSS-N: −2.65
SNP_A-1934663 genotype A_A
  mean of change in PANSS-N: −3.38
SNP_A-1934663 genotype A_B
  mean of change in PANSS-N: −3.94
SNP_A-1934663 genotype B_B* (lowest response)
  mean of change in PANSS-N: −2.06
SNP_A-1934663 genotype nonBB** (highest response)
  mean of change in PANSS-N: −3.82
SNP_A-1973093 (KIAA0040) genotype A_A
  mean of change in PANSS-N: −3.32
SNP_A-1973093 (KIAA0040) genotype A_B* (lowest response)
  mean of change in PANSS-N: −1.85
SNP_A-1973093 (KIAA0040) genotype B_B
  mean of change in PANSS-N: −3.46
SNP_A-1973093 (KIAA0040) genotype nonAB** (highest response)
  mean of change in PANSS-N: −3.43
SNP_A-1975928 (SLC2A9) genotype A_A
  mean of change in PANSS-N: −2.87
SNP_A-1975928 (SLC2A9) genotype A_B
  mean of change in PANSS-N: −2.95
SNP_A-1975928 (SLC2A9) genotype B_B* (lowest response)
  mean of change in PANSS-N: 0.62
SNP_A-1975928 (SLC2A9) genotype nonBB** (highest response)
  mean of change in PANSS-N: −2.89
SNP_A-1987915 (GPR126) genotype A_A
  mean of change in PANSS-N: −1.91
SNP_A-1987915 (GPR126) genotype A_B
  mean of change in PANSS-N: −2.03
SNP_A-1987915 (GPR126) genotype B_B** (highest response)
  mean of change in PANSS-N: −4.28
SNP_A-1987915 (GPR126) genotype nonBB* (lowest response)
  mean of change in PANSS-N: −2.00
SNP_A-2007721 (LOC58486) genotype A_A
  mean of change in PANSS-N: 0.51
SNP_A-2007721 (LOC58486) genotype A_B** (highest response)
  mean of change in PANSS-N: −4.73
SNP_A-2007721 (LOC58486) genotype B_B
  mean of change in PANSS-N: −2.33
SNP_A-2007721 (LOC58486) genotype nonAB* (lowest response)
  mean of change in PANSS-N: −2.31
SNP_A-2044214 (HNT) genotype A_A
  mean of change in PANSS-N: −3.32
SNP_A-2044214 (HNT) genotype A_B* (lowest response)
  mean of change in PANSS-N: −2.16
SNP_A-2044214 (HNT) genotype B_B
  mean of change in PANSS-N: −3.05
SNP_A-2044214 (HNT) genotype nonAB** (highest response)
  mean of change in PANSS-N: −3.22
SNP_A-2048427 (NPAS3) genotype A_A
  mean of change in PANSS-N: −4.12
SNP_A-2048427 (NPAS3) genotype A_B
  mean of change in PANSS-N: −4.30
SNP_A-2048427 (NPAS3) genotype B_B* (lowest response)
  mean of change in PANSS-N: −2.27
SNP_A-2048427 (NPAS3) genotype nonBB** (highest response)
  mean of change in PANSS-N: −4.28
SNP_A-2070454 (NKX2-5) genotype A_A
  mean of change in PANSS-N: −1.86
SNP_A-2070454 (NKX2-5) genotype A_B
  mean of change in PANSS-N: −2.40
SNP_A-2070454 (NKX2-5) genotype B_B** (highest response)
  mean of change in PANSS-N: −4.58
SNP_A-2070454 (NKX2-5) genotype nonBB* (lowest response)
  mean of change in PANSS-N: −2.23
SNP_A-2076797 (NUDT9P1) genotype A_A
  mean of change in PANSS-N: −1.75
SNP_A-2076797 (NUDT9P1) genotype A_B** (highest response)
  mean of change in PANSS-N: −4.06
SNP_A-2076797 (NUDT9P1) genotype B_B
  mean of change in PANSS-N: −1.62
SNP_A-2076797 (NUDT9P1) genotype nonAB* (lowest response)
  mean of change in PANSS-N: −1.69
SNP_A-2103099 (HTR1A) genotype A_A
  mean of change in PANSS-N: −4.08
SNP_A-2103099 (HTR1A) genotype A_B* (lowest response)
  mean of change in PANSS-N: −2.09
SNP_A-2103099 (HTR1A) genotype B_B
  mean of change in PANSS-N: −3.40
SNP_A-2103099 (HTR1A) genotype nonAB** (highest response)
  mean of change in PANSS-N: −3.65
SNP_A-2120958 genotype A_A
  mean of change in PANSS-N: −3.15
SNP_A-2120958 genotype A_B
  mean of change in PANSS-N: −2.84
SNP_A-2120958 genotype B_B* (lowest response)
  mean of change in PANSS-N: −1.11
SNP_A-2120958 genotype nonBB** (highest response)
  mean of change in PANSS-N: −3.03
SNP_A-2170121 (C6) genotype A_A
  mean of change in PANSS-N: −2.14
SNP_A-2170121 (C6) genotype A_B** (highest response)
  mean of change in PANSS-N: −4.78
SNP_A-2170121 (C6) genotype B_B
  mean of change in PANSS-N: −2.52
SNP_A-2170121 (C6) genotype nonAB* (lowest response)
  mean of change in PANSS-N: −2.17
SNP_A-2274533 (LZTS1) genotype A_A** (highest response)
  mean of change in PANSS-N: −3.67
SNP_A-2274533 (LZTS1) genotype A_B
  mean of change in PANSS-N: −1.52
SNP_A-2274533 (LZTS1) genotype B_B
  mean of change in PANSS-N: −1.16
SNP_A-2274533 (LZTS1) genotype nonAA* (lowest response)
  mean of change in PANSS-N: −1.44
SNP_A-2283283 (XKR4) genotype A_A* (lowest response)
  mean of change in PANSS-N: −0.95
SNP_A-2283283 (XKR4) genotype A_B
  mean of change in PANSS-N: −3.20
SNP_A-2283283 (XKR4) genotype B_B
  mean of change in PANSS-N: −3.62
SNP_A-2283283 (XKR4) genotype nonAA** (highest response)
  mean of change in PANSS-N: −3.37
SNP_A-2284243 (GRIA4) genotype A_A
  mean of change in PANSS-N: −3.70
SNP_A-2284243 (GRIA4) genotype A_B
  mean of change in PANSS-N: −3.46
SNP_A-2284243 (GRIA4) genotype B_B* (lowest response)
  mean of change in PANSS-N: −0.52
SNP_A-2284243 (GRIA4) genotype nonBB** (highest response)
  mean of change in PANSS-N: −3.55
SNP_A-4204396 (CDH13) genotype A_A
  mean of change in PANSS-N: −3.22
SNP_A-4204396 (CDH13) genotype A_B
  mean of change in PANSS-N: −3.12
SNP_A-4204396 (CDH13) genotype B_B* (lowest response)
  mean of change in PANSS-N: 1.62
SNP_A-4204396 (CDH13) genotype nonBB** (highest response)
  mean of change in PANSS-N: −3.18
SNP_A-4212785 (PPP1R3B) genotype A_A* (lowest response)
  mean of change in PANSS-N: 4.72
SNP_A-4212785 (PPP1R3B) genotype A_B
  mean of change in PANSS-N: −3.06
SNP_A-4212785 (PPP1R3B) genotype B_B
  mean of change in PANSS-N: −3.11
SNP_A-4212785 (PPP1R3B) genotype nonAA** (highest response)
  mean of change in PANSS-N: −3.09
SNP_A-4230979 (ASB3) genotype A_A
  mean of change in PANSS-N: −1.72
SNP_A-4230979 (ASB3) genotype A_B
  mean of change in PANSS-N: −2.02
SNP_A-4230979 (ASB3) genotype B_B** (highest response)
  mean of change in PANSS-N: −4.23
SNP_A-4230979 (ASB3) genotype nonBB* (lowest response)
  mean of change in PANSS-N: −1.96
SNP_A-4256833 (MLCK) genotype A_A
  mean of change in PANSS-N: −3.58
SNP_A-4256833 (MLCK) genotype A_B* (lowest response)
  mean of change in PANSS-N: −0.86
SNP_A-4256833 (MLCK) genotype B_B
  mean of change in PANSS-N: −3.69
SNP_A-4256833 (MLCK) genotype nonAB** (highest response)
  mean of change in PANSS-N: −3.68
SNP_A-4258279 (RRM1) genotype A_A
  mean of change in PANSS-N: −2.57
SNP_A-4258279 (RRM1) genotype A_B* (lowest response)
  mean of change in PANSS-N: −1.09
SNP_A-4258279 (RRM1) genotype B_B
  mean of change in PANSS-N: −3.34
SNP_A-4258279 (RRM1) genotype nonAB** (highest response)
  mean of change in PANSS-N: −3.33

Reference: patent publication US9080214B2, “Genetic markers for efficacy of iloperidone in the treatment of psychotic symptoms” (Vanda Pharmaceuticals, Inc., priority 2007, dated 2015)
